Read-outs that look alike come from different tables or passages of the source.

For data set [1], the system named is HepG2 human hepatocyte cell line. Put plainly: In vitro cytotoxicity evaluation HepG2 (MTT). It counts as cell-based. Here is the method: (§1) For all molecules, the selectivity index was calculated as following SI = CC50/EC50.
(§2) Triplicate assays were performed for each sample. Each plate-well was then microscopically examined for possible precipitate formation before the medium was aspirated from the wells. Next, 100 µL of MTT (3-(4,5-dimethyl-2-thiazolyl)-2,5-diphenyl -2H-tetrazolium bromide) solution (0.5 mg/mL in medium without FBS) was added to each well. […] After this time, the MTT solution was removed and DMSO (100 μL) was added to dissolve the resulting blue formazan crystals. Plates were shaken vigorously (700 rpm) for 10 min. The absorbance was measured at 570 nm with 630 nm as reference wavelength using a BIO-TEK ELx808 Absorbance Microplate Reader (LabX, Midland, ON, Canada). DMSO was used as blank and doxorubicin (purchased from Sigma Aldrich) as positive control. Cell viability was calculated as a percentage of control (cells incubated without compound). […] CC50 values to represent the mean value calculated from three independent experiments.

The subject of data set [2] is K1 chloroquine and pyrimethamine-resistant P. falciparum strain. Nature of the data set: In vitro antiplasmodial evaluation (SYBR Green I). The data set is classed as cell-based, Plasmodium falciparum. Particulars: for EC50: K1 strain, 72 h incubation, three independent experiments, read-out: EC50 PfK1 (µM) ± SD. How it is done:
as §1
It was maintained in continuous culture, as described previously by Trager and Jensen. Cultures were maintained in fresh A+ human erythrocytes at 2.5% hematocrit in complete medium (RPMI 1640 with 25 mM HEPES, 25 mM NaHCO3, 10% of A+ human serum) at 37 °C under reduced O2 atmosphere (gas mixture 10% O2, 5% CO2, and 85% N2). Parasitemia was maintained daily between 1 and 3%. The P. falciparum drug susceptibility test was carried out by comparing quantities of DNA in treated and control cultures of parasite in human erythrocytes according to an SYBR Green I fluorescence-based method using a 96-well fluorescence plate reader. Compounds, previously dissolved in DMSO (final concentration less than 0.5% v/v), were incubated in a total assay volume of 200 μL (RPMI, 2% hematocrit and 0.4% parasitemia) for 72 h in a humidified atmosphere (10% O2 and 5% CO2) at 37 °C, in 96-well flat bottom plates. Duplicate assays were performed for each sample. After incubation, plates were frozen at […] for 24 h. Then, the frozen plates were thawed for 1 h at 37 °C. Fifteen µL of each sample were transferred to 96-well flat bottom non-sterile black plates (Greiner Bio-one, Kremsmünster, Austria), already containing 15 µL of the SYBR Green I lysis buffer (2X SYBR Green I, 20 mM Tris base pH 7.5, 20 mM EDTA, 0.008% w/v saponin, 0.08% w/v Triton X-100). […] Plates were incubated for 15 min at 37 °C and then read on a TECAN Infinite F-200 spectrophotometer with excitation and emission wavelengths at 485 and 535 nm, respectively.

Data set [3] can be described thus: Aqueous solubility in the cell culture medium. It counts as physicochemical. How it is done: It appeared that the cluttered derivatives (3q, 3s) and the 2-chlorophenoxy derivative (3b) were the less cytotoxic compounds.
The HepG2 cell line was maintained at 37 °C, 5% CO2, at 90% humidity in MEM supplemented with 10% fetal bovine serum, 1% L-glutamine (200 mM), and penicillin (100 U/mL)/streptomycin (100 μg/mL) (complete RPMI medium). The cytotoxicity of the tested molecules on the HepG2 (hepatocarcinoma cell line purchased from ATCC, ref HB-8065) cell line was assessed according to the method of Mosmann with slight modifications. Briefly, 5.10^3 cells in 100 μL of complete medium were inoculated into each well of 96-well plates and incubated at 37 °C in humidified 5% CO2. After 24 h incubation, 100 μL of medium with various product concentrations dissolved in DMSO (final concentration less than 0.5% v/v) were added and the plates were incubated for 72 h at 37 °C. Triplicate assays were performed for each sample. Each plate-well was then microscopically examined for possible precipitate formation before the medium was aspirated from the wells. Next, 100 µL of MTT (3-(4,5-dimethyl-2-thiazolyl)-2,5-diphenyl -2H-tetrazolium bromide) solution (0.5 mg/mL in medium without FBS) was added to each well. Cells were incubated for 2 h at 37 °C. After this time, the MTT solution was removed and DMSO (100 μL) was added to dissolve the resulting blue formazan crystals. Plates were shaken vigorously (700 rpm) for 10 min. The absorbance was measured at 570 nm with 630 nm as reference wavelength using a BIO-TEK ELx808 Absorbance Microplate Reader (LabX, Midland, ON, Canada). DMSO was used as blank and doxorubicin (purchased from Sigma Aldrich) as positive control. Cell viability was calculated as a percentage of control (cells incubated without compound). […] CC50 values to represent the mean value calculated from three independent experiments.

Data set [4] has as its system P. falciparum apicoplast. Nature of the data set: Immunofluorescence assay of apicoplast biogenesis on treated blood-stage parasites. It counts as cell-based, Plasmodium falciparum. Particulars: 48 h, 0.2 µM. Here is the method: (§3) To determine the impact of (3i) on apicoplast biogenesis, parasites were treated for 48 h with 0.2 µM of (3i) or 0.2 µM of (2i) (a control of (3i) for which the active CCl3 was replaced by a methyl CH3 group) and compared to untreated parasites by immunofluorescence assay. […] In order to determine if the apicoplast is the main target of (3i), we performed a growth assay over three life cycles to assess a potential delayed death effect, one of the major signature for compounds affecting apicoplast. […] The second interpretation could be that, unlike chloramphenicol or doxycycline, which cause a delayed death phenotype on Plasmodium, (3i) could act like fosmidomycin or actinonin and cause a rapid death phenotype.
Plasmodium falciparum blood stage parasites were maintained at 2% hematocrit in 1640 RPMI-HEPES, supplemented with 5% AlbuMAX II (GIBCO) and 0.25% gentamycin. Parasites were grown sealed Perspex chambers gassed with beta mix gas (1% O2, 5% CO2 and 94% N2) at 37 °C and maintained on 48-h cycles. Cultures were tightly synchronized at ring stage using sorbitol treatment (5% v/v) as previously described.
Prior to the treatment, parasites were synchronized using 5% sorbitol. After 48 h treatment ([…] or DMSO) parasites were fixed using 4% paraformaldehyde (PFA) and 0.0075% glutaraldehyde for 30 min at room temperature. […]

In data set [5] the test system is Plasmodium falciparum blood stage parasites. Put plainly: Growth assay over three life cycles (delayed death). It counts as cell-based. Particulars: 0.2 µM; 48, 96, 144 h. Here is the method:
as §3
To observe a potential effect of delayed death of the molecule on the parasite, Plasmodium was maintained on three life cycles (48 h). […] Fluorescence from each well was measured with TECAN infinite M200 plate reader (excitation: 485 nm, emission: 538 nm and integration time: 1000 μs). […] A graph was obtained by performing the ration of the treated culture fluorescence intensity on the untreated culture fluorescence intensity (n = 3).

Data set [6] is described as follows: In vitro cytotoxicity evaluation HepG2 (MTT). It counts as cell-based, human. Particulars: human, CC50 HepG2 (µM) ± SD. Here is the method: as §1, §2
Data set [7] relates to P. falciparum (NF135 strain) hepatic exoerythrocytic forms. Put plainly: Liver stage development in infected primary human hepatocytes. The data set is classed as cell-based, Plasmodium falciparum. Conditions: 3i 0.9-30 µM, ATQ 25 nM; 6 or 12 days post-infection. How it is done:
The effect of (3i) on the hepatic stage of P. falciparum was next studied in order to know if (3i) was active against another stage of P. falciparum cycle. Cryopreserved primary human hepatocytes were infected with 30,000 freshly extracted P. falciparum sporozoites and simultaneously treated with a dose range (0.9–30 µM) of (3i). Atovaquone (ATQ) was used as a positive parasite-killing control at 25 nM.
P. falciparum (NF135 strain) sporozoites were isolated by dissection of the salivary glands of infected A. stephensi 14–21 days after an infective blood meal (Department of medical microbiology, University Medical Centre, St Radboud, Nijmegen Netherland). All infected salivary glands were removed by hand dissection, crushed in a potter for sporozoites isolation, and filtrated through a 40 μm filter to remove mosquito debris (Cell Strainer, BD BioSciences, Franklin Lakes, NJ, USA). The sporozoites were counted using a disposable Glasstic microscope slide (KOVA, Garden Grove, CA, USA).
One day before hepatocyte thawing, 96-well plates were coated by a Corning®® collagen solution (50 µg/mL rat tail type I collagen in 0.02N acid acetic) over night at room temperature. The next day, the wells were washed twice by PBS solution. Cryopreserved primary human hepatocytes (LONZA, Basel, Swiss) were seeded in 96-well plates with a pre-determined seeding dose that gave a single dense layer of attached hepatocytes. Four days post-seeding, each plate well was infected with 30,000 freshly extracted Plasmodium falciparum sporozoites. […]
Hepatocyte cultures were fixed with 4% paraformaldehyde solution (PFA, Invitrogen) for 10 min. […] Images were analyzed and prepared with ImageJ software. Apicoplast morphology was observed and quantified by eye under a confocal microscope.
Upon immunostaining of parasites, the study plates were scanned using a CellInsight high-content screening platform equipped with the Studio HCS software (Thermo Fisher Scientific, Waltham, MA, USA). […] The number of host hepatocyte nuclei per well was counted by the system as a measure of toxicity of 3i towards the liver cells. […]

Data set [8] has as its system HepG2. Particulars: Figure 2; cited from earlier work.
Data set [9] concerns Pf3D7 (3D7 chloroquine-sensitive strain). Particulars: Figure 2; cited from earlier work.
The mark [10] stands for this setting: Plasmodium falciparum, K1, 72 h.

“2-(Naphthalen-1-yloxy)-3-trichloromethylquinoxaline [3r]” came in with a CC50 in data set [1] of more than 31.2 µM. In data set [2], the EC50 was found to be 0.4 ± 0.08 µM. Further, the “Aqueous solubility in the cell culture medium” value in [3] is recorded as “poor aqueous solubility”.
In turn, “2-(Naphthalen-2-yloxy)-3-trichloromethylquinoxaline [3q]” came in with a CC50 in data set [1] of 53.1 ± 7.6 µM. The EC50 in data set [2] was found to be 0.6 ± 0.1 µM.
`Cc1nc2ccccc2nc1Oc1ccc([N+](=O)[O-])cc1` [2i, 2-Methyl-3-(4-nitrophenoxy)quinoxaline]: the “Effect on apicoplast biogenesis (immunofluorescence)” value in data set [4] was “absence of effect”. Moreover, the EC50 in data set [2] was more than 16 µM; in data set [2] (setting [10]) it was more than 25 µM. Besides, the “Parasite growth over three life cycles (ratio treated/untreated)” value in data set [5] is on record as “absence of effect”.
The compound `FS(F)(F)(F)(F)c1ccc(Oc2nc3ccccc3nc2C(Cl)(Cl)Cl)cc1` [3l, 2-Trichloromethyl-3-[4-(pentafluorosulfanyl)phenoxy]quinoxaline] gave a melting point of 99 °C. The CC50 in [1] (human, 72 h) worked out at 16.6 ± 3.9 µM. Further, in data set [6], the CC50 at 72 h is 15.4 µM. In [2] (setting [10]), the EC50 came to 0.2 ± 0.03 µM. In [2] (SI = CC50 HepG2/EC50 PfK1), the “SI (selectivity index)” value is on record as 83.0.
Regarding `N#Cc1ccc(Oc2nc3ccccc3nc2C(Cl)(Cl)Cl)cc1` [3n, 4-[(3-Trichloromethylquinoxalin-2-yl)oxy]benzonitrile], the melting point was determined as 194 °C. This compound also yielded a CC50 in data set [1] (human, 72 h) of 15.4 ± 2.1 µM. Also, the CC50 at 72 h in data set [6] came out at 16.6 µM. The EC50 in data set [2] (setting [10]) was found to be 0.2 µM.
Regarding `O=C1C(O)=C([C@H]2CC[C@H](c3ccc(Cl)cc3)CC2)C(=O)c2ccccc21` [ATQ, Atovaquone, reference compound], in data set [7], the “Effect on exoerythrocytic forms (EEF or schizont) size and numbers” value is “completely clear all parasites from the culture”.
As for `Brc1ccc(Nc2nc3ccccc3nc2Nc2ccc(Br)cc2)cc1` [MMV007224], the CC50 in data set [8] was 5.1 µM. For the same compound, the EC50 in data set [9] is 1.06 µM.

As usually defined, the EC50 is the concentration giving half of the maximal effect. Broadly, the melting point is the temperature, or range, at which the solid turns liquid.

(Values after PMC8400257, “2-Phenoxy-3-Trichloromethylquinoxalines Are Antiplasmodial Derivatives with Activity against the Apicoplast of Plasmodium falciparum” (Pharmaceuticals, 2021).)
